According to patent publication US12258338B2, “Modulators of the integrated stress response pathway” (EVOTEC INTERNATIONAL GMBH, priority 2019, dated 2025):
Values after ≈ are worked out from the molar mass of the structure shown. Where two headings read alike, the source gives them in different places.

Columns and labels:
[1] = system: ATF4; experiment: HEK-ATF4 High Content Imaging assay (prevention of Tunicamycin induced ISR; ATF4 signal ratio between nucleus and cytoplasm); type: cell-based; conditions: Homo sapiens; Wild-type HEK293 cells, Tunicamycin induced ISR, 6 h; read-out: IIEK-ATF4 Activity
Protocol: HEK-ATF4 High Content Imaging Assay
Example compounds were tested in the HEK-ATF4 High Content Imaging assay to assess their pharmacological potency to prevent Tunicamycin induced ISR. Wild-type HEK293 cells were plated in 384-well imaging assay plates at a density of 12,000 cells per well in growth medium (containing DMEM/F12, 10% FBS, 2 mM L-Glutamine, 100 U/mL Penicillin-100 μg/mL Streptomycin) and incubated at 37° C., 5% CO2. 24 h later, the medium was changed to 50 μL assay medium per well (DMEM/F12, 0.3% FBS, 2 mM L-Glutamine, 100 U/mL Penicillin-100 μg/mL Streptomycin). Example compounds were serially diluted in DMSO, spotted into intermediate plates and prediluted with assay medium containing 3.3 μM Tunicamycin to give an 11-fold excess of final assay concentration. In addition to the example compound testing area, the plates also contained multiples of control wells for assay normalization purposes, wells containing Tunicamycin but no example compounds (High control), as well as wells containing neither example compound nor Tunicamycin (Low control). The assay was started by transferring 5 μL from the intermediate plate into the assay plates, followed by incubation for 6 h at 37° C., 5% CO2. Subsequently, cells were fixed (4% PFA in PBS, 20 min at r.t.) and submitted to indirect ATF4 immunofluorescence staining (primary antibody rabbit anti ATF4, clone D4B8, Cell Signaling Technologies; secondary antibody Alexa Fluor 488 goat anti-rabbit IgG (H+L), Thermofisher Scientific). Nuclei were stained using Hoechst dye (Thermofisher Scientific), and plates were imaged on an Opera Phenix High Content imaging platform equipped with 405 nm and 488 nm excitation. Finally, images were analyzed using script based algorithms. The main readout HEK-ATF4 monitored the ATF4 signal ratio between nucleus and cytoplasm. Tunicamycin induced an increase in the overall ATF4 ratio signal, which was prevented by ISR modulating example compounds. In addition, HEK-CellCount readout was derived from counting the number of stained nuclei corresponding to healthy cells. This readout served as an internal toxicity control.

[2] = Thermodynamic (Equilibrium) solubility in selected buffer; type: physicochemical; conditions: Table 25; for solubility: aqueous buffer, thermodynamic from solid
Protocol: Protocol—Thermodynamic (Equilibrium) Solubility in Selected Buffer
Example compounds were tested in the Thermodynamic (Equilibrium) solubility in selected buffer assay. The test compound, in powder form, was weighted into a 4 mL glass vial and a calculated volume of selected medium was added to reach the target concentration of the solubility test (1 mg/mL). The solution was then stirred overnight at r.t. protected from the light. The solution was filtered through a 0.45 μm PTFE membrane at ambient temperature. An aliquot of the resulting filtrate was quantified using UPLC-UV method described below against a reference solution of the test compound, 0.8 mg/mL in DMSO. Media compositions: Phosphate buffer 50 mM (pH=2.0) […] of NaH2PO4, H2O in 200 mL of ultrapurified water adjusted at pH 2 with phosphoric acid 85%; Acetate buffer 50 mM (pH=5.5) 820 mg of anhydrous sodium acetate in 200 mL of ultrapurified water adjusted at pH 5.5 with acetic acid 99.8%; Phosphate buffer 50 mM (pH=7.4) 40.5 mL of Na2HPO4 0.1 M solution+9.5 mL of NaH2PO4 0.1 M solution. Analytical conditions: UPLC-UV-MS analyses were performed with a Waters Acquity UPLC HClass-PDA-QDa system using a reverse phase Acquity BEH C18 column (2.1 mm×50 mm, 1.7 μm; temperature: 40° C.) and a gradient of 10-95% B (A=0.1% formic acid in H2O; B=0.05% formic acid in ACN) over 1.8 min then 100% B for 0.8 min, with an injection volume of 0.4 μL at flow rate of 0.65 mL/min. UV chromatograms were recorded at 220 nm, 254 nm and 290 nm using a photo diode array detector. Mass spectra were recorded in the 150 to 900 M/Z range at a sampling rate of 10 scans per sec using a QDa detector. Data were integrated using Empower®3 software. Data Analysis: Equilibrium solubility of the test compound in the selected medium was calculated through the ratio of the surface area of the UV chromatographic peak of the compound in the filtrate to the surface of the UV chromatographic peak of the compound in the reference solution.

[3] = acetate buffer 50 mM, pH 5.5, read-out: Solubility (μg/mL) pH 5.5
[4] = phosphate buffer 50 mM, pH 7.4, read-out: Solubility (μg/mL) pH 7.4

Structure (SMILES) | IC50 [1] [nM] | also measured
C[C@H](Oc1ccc(Cl)cc1)C(=O)N[C@H]1CC[C@H](c2nnc(-c3ccc(C(F)(F)F)cc3)o2)NC1 (single isomer, unassigned) [Example 107] | 2000 to 15000 | –
O=C(CO[C@H]1C[C@@H](OC(F)(F)F)C1)N[C@@H]1CC[C@@H](c2nnc(-c3ccc(Cl)cc3)o2)NC1 [Example 5] | – | solubility [2, 3]: 215 µg/mL (≈ 453 µM); Solubility (μg/mL) pH 2.0 ([2]; pH 2.0): quant.^#; solubility [2, 4]: 278 µg/mL (≈ 585 µM)
O=C(COc1ccc(Cl)cc1F)N[C@H]1CC[C@H](c2nnc(OCCC(F)(F)F)o2)NC1 [Example 17, 2-(4-chloro-2-fluorophenoxy)-N-[(3S,6R)-6-[5-(3,3,3-trifluoropropoxy)-1,3,4-oxadiazol-2-yl]piperidin-3-yl]acetamide] | 2000 to 15000 | –
O=C(N[C@H]1CC[C@H](c2nnc(OCCC(F)(F)F)o2)NC1)C(F)(F)Oc1ccc(Cl)c(F)c1 [Example 24, 2-(4-chloro-3-fluorophenoxy)-2,2-difluoro-N-[(3S,6R)-6-[5-(3,3,3-trifluoropropoxy)-1,3,4-oxadiazol-2-yl]piperidin-3-yl]acetamide] | 500 to 2000 | –
O=C(COc1cc(Cl)c(Cl)c(Cl)c1)N[C@H]1CC[C@H](c2nnc(OCCC(F)(F)F)o2)NC1 [Example 26, 2-(3,4,5-trichlorophenoxy)-N-[(3S,6R)-6-[5-(3,3,3-trifluoropropoxy)-1,3,4-oxadiazol-2-yl]piperidin-3-yl]acetamide] | 2000 to 15000 | –
O=C(COc1cccc(C(F)(F)F)c1)N[C@H]1CC[C@H](c2nnc(OCCC(F)(F)F)o2)NC1 [Example 28, 2-[3-(trifluoromethyl)phenoxy]-N-[(3S,6R)-6-[5-(3,3,3-trifluoropropoxy)-1,3,4-oxadiazol-2-yl]piperidin-3-yl]acetamide] | 2000 to 15000 | –
Cc1ccc(-c2nnc([C@H]3CC[C@H](NC(=O)COc4ccc(Cl)c(F)c4)CN3)o2)cn1 [Example 34, 2-(4-chloro-3-fluorophenoxy)-N-[(3S,6R)-6-[5-(6-methylpyridin-3-yl)-1,3,4-oxadiazol-2-yl]piperidin-3-yl]acetamide] | 500 to 2000 | solubility [2, 3]: 239 µg/mL (≈ 536 µM); solubility ([2]; phosphate buffer 50 mM, pH 2.0, read-out: Solubility (μg/mL) pH 2.0): 994 µg/mL (≈ 2230 µM); solubility [2, 4]: 153 µg/mL (≈ 343 µM)
O=C(COc1ccc(Cl)c(F)c1)N[C@@H]1CC[C@H](c2nnc(-c3ccc(Cl)cc3)o2)NC1 [Example 36, 2-(4-chloro-3-fluorophenoxy)-N-[(3R,6R)-6-[5-(4-chlorophenyl)-1,3,4-oxadiazol-2-yl]piperidin-3-yl]acetamide] | 500 to 2000 | –
CC(C)(C)OC(=O)N1C[C@@H](NC(=O)COc2ccc(Cl)c(F)c2)CC[C@@H]1c1nnc(-c2ccc(Cl)cc2)o1 [Example 39, tert-butyl (2R,5S)-5-[2-(4-chloro-3-fluorophenoxy)acetamido]-2-[5-(4-chlorophenyl)-1,3,4-oxadiazol-2-yl]piperidine-1-carboxylate] | 2000 to 15000 | –
COCCN1C[C@H](NC(=O)COc2ccc(Cl)c(F)c2)CC[C@H]1c1nnc(-c2ccc(Cl)cc2)o1 [Example 48, 2-(4-chloro-3-fluoro-phenoxy)-N-[(3R,6S)-6-[5-(4-chlorophenyl)-1,3,4-oxadiazol-2-yl]-1-(2-methoxyethyl)piperidin-3-yl]acetamide] | 500 to 2000 | –
CC(COc1nnc([C@H]2CC[C@H](NC(=O)COc3ccc(Cl)c(F)c3)CN2)o1)C(F)(F)F (stereo partly drawn) [Example 63, 2-(4-chloro-3-fluorophenoxy)-N-[(3S,6R)-6-[5-(3,3,3-trifluoro-2-methylpropoxy)-1,3,4-oxadiazol-2-yl]piperidin-3-yl]acetamide] | 500 to 2000 | –
O=C(COc1ccc(Cl)c(F)c1)N[C@H]1CC[C@H](c2nnc(OCC(F)(F)C(F)(F)F)o2)NC1 [Example 73, 2-(4-chloro-3-fluorophenoxy)-N-[(3S,6R)-6-[5-(2,2,3,3,3-pentafluoropropoxy)-1,3,4-oxadiazol-2-yl]piperidin-3-yl]acetamide] | 500 to 2000 | –
O=C(COc1ccc(Cl)c(F)c1)N[C@H]1CC[C@H](c2nnc(OCCCC(F)(F)F)o2)NC1 [Example 74, 2-(4-chloro-3-fluorophenoxy)-N-[(3S,6R)-6-[5-(4,4,4-trifluorobutoxy)-1,3,4-oxadiazol-2-yl]piperidin-3-yl]acetamide] | 1 to 500 | –

Second part, led by results:

IC50 [1] [nM] | Structure (SMILES) | also measured
1 to 500 | O=C(COc1ccc(Cl)c(F)c1)N[C@H]1CC[C@H](c2nnc(-c3ccc(Cl)cc3)o2)NC1=O (racemic) [Example 37, Rac-2-(4-chloro-3-fluorophenoxy)-N-[6-[5-(4-chlorophenyl)-1,3,4-oxadiazol-2-yl]-2-oxopiperidin-3-yl]acetamide] | –
500 to 2000 | O=C(COc1ccc(F)c(Cl)c1)N[C@H]1CC[C@H](c2nnc(OCCC(F)(F)F)o2)NC1 [Example 18, 2-(3-chloro-4-fluorophenoxy)-N-[(3S,6R)-6-[5-(3,3,3-trifluoropropoxy)-1,3,4-oxadiazol-2-yl]piperidin-3-yl]acetamide] | –
500 to 2000 | O=C(COc1ccc(C(F)(F)F)cc1)N[C@H]1CC[C@H](c2nnc(OCCC(F)(F)F)o2)NC1 [Example 19, 2-[4-(trifluoromethyl)phenoxy]-N-[(3S,6R)-6-[5-(3,3,3-trifluoropropoxy)-1,3,4-oxadiazol-2-yl]piperidin-3-yl]acetamide] | –
1 to 500 | O=C(COc1ccc(Cl)c(Cl)c1)N[C@H]1CC[C@H](c2nnc(OCCC(F)(F)F)o2)NC1 [Example 20, 2-(3,4-dichlorophenoxy)-N-[(3S,6R)-6-[5-(3,3,3-trifluoropropoxy)-1,3,4-oxadiazol-2-yl]piperidin-3-yl]acetamide] | –
500 to 2000 | O=C(COc1ccc(Cl)c(F)c1F)N[C@H]1CC[C@H](c2nnc(OCCC(F)(F)F)o2)NC1 [Example 21, 2-(4-chloro-2,3-difluorophenoxy)-N-[(3S,6R)-6-[5-(3,3,3-trifluoropropoxy)-1,3,4-oxadiazol-2-yl]piperidin-3-yl]acetamide] | –
500 to 2000 | O=C(COc1cc(F)c(Cl)c(F)c1)N[C@H]1CC[C@H](c2nnc(OCCC(F)(F)F)o2)NC1 [Example 22, 2-(4-chloro-3,5-difluorophenoxy)-N-[(3S,6R)-6-[5-(3,3,3-trifluoropropoxy)-1,3,4-oxadiazol-2-yl]piperidin-3-yl]acetamide] | –
1 to 500 | O=C(COc1ccc(C(F)(F)F)c(F)c1)N[C@H]1CC[C@H](c2nnc(OCCC(F)(F)F)o2)NC1 [Example 23, 2-[3-fluoro-4-(trifluoromethyl)phenoxy]-N-[(3S,6R)-6-[5-(3,3,3-trifluoropropoxy)-1,3,4-oxadiazol-2-yl]piperidin-3-yl]acetamide] | –
1 to 500 | O=C(COc1ccc(C(F)(F)F)c(Cl)c1)N[C@H]1CC[C@H](c2nnc(OCCC(F)(F)F)o2)NC1 [Example 25, 2-[3-chloro-4-(trifluoromethyl)phenoxy]-N-[(3S,6R)-6-[5-(3,3,3-trifluoropropoxy)-1,3,4-oxadiazol-2-yl]piperidin-3-yl]acetamide] | –
1 to 500 | O=C(COc1ccc(Br)cc1)N[C@H]1CC[C@H](c2nnc(OCCC(F)(F)F)o2)NC1 [Example 27, 2-(4-bromophenoxy)-N-[(3S,6R)-6-[5-(3,3,3-trifluoropropoxy)-1,3,4-oxadiazol-2-yl]piperidin-3-yl]acetamide] | –
